# Results reported in patent publication US9482666B2, “High throughput selection of specific cell binding and lytic polypeptides” (priority 2011, dated 2016).
# Legend:
# Test in all cases: Functional assay on peptide microarray (CTO/AF555 profile)
# S. mutans UAB147 = type: cell-based, Streptococcus mutans; conditions: SM; CTO and AF555 labeled cells
# Description: (§1) In order to make our technology more informative, we have developed a procedure for distinguishing those classes of peptides directly on the microarray (see FIG. 1c). Using the intracellular stain CTO we detected the first class (peptide-binders) and the third class (no activity). We decided to involve additional reference dye “Alexa Fluor-555” with an NHS ester active group that attack free amines present in membrane-bound proteins. It was expected, and subsequently shown, that peptide-binders should have signals dominated by both dyes on parallel arrays (profile CTO+AF+). In the case of peptides with killing activity, CTO should leak out of cells once the membrane is disrupted (profile CTO−AF+).
# (§2) Before probing, the slides were treated with 90% TFA (trifluor-acetic acid) to get rid of non-immobilized peptides, blocking groups and probable organic impurities followed by DMF, ethanol and deionized water washing. […]
# (§3) Turbidity of overnight cultures was measured at OD600. The CFU/ml value was calculated according to McFarland turbidity standard. […]
# (§4) Microarrays were scanned by using a Perkin-Elmer ProScanArray HT Microarray Scanner with the 488, 543 and 633 nm excitation lasers at 100% power and 70% photomultiplier tube gain. […] All scanned images were analyzed by using GenePix Pro 6.0 software (Axon Instruments, Union City, Calif., USA). […]
# B. subtilis = type: cell-based, Bacillus subtilis; conditions: BS; CTO and AF555 labeled cells
# Description: as §1, §2, §3, §4
# P. aeruginosa PAO-1 = type: cell-based, Pseudomonas aeruginosa; conditions: PA; CTO and AF555 labeled cells
# Description: as §1, §2, §3, §4
# S. aureus UAB637 = type: cell-based, Staphylococcus aureus; conditions: SA; CTO and AF555 labeled cells
# Description: as §1, §2, §3, §4
# E. coli O111:B4 = type: cell-based, Escherichia coli O111:B4; conditions: EC; CTO and AF555 labeled cells
# Description: as §1, §2, §3, §4
Sequence,microarray profile (lytic / binder / no profile) (S. mutans UAB147),microarray profile (lytic / binder / no profile) (B. subtilis),microarray profile (lytic / binder / no profile) (P. aeruginosa PAO-1),microarray profile (lytic / binder / no profile) (S. aureus UAB637),microarray profile (lytic / binder / no profile) (E. coli O111:B4)
RWRRHKHFKRPHRKHKRGSC,lytic,lytic,lytic,lytic,no profile
DRIFHKMQHKPYKIKKRGSC,lytic,no profile,lytic,binder,binder
